Measured values as given in patent US10195179B2, “Spiro-lactam NMDA receptor modulators and uses thereof” (Aptinyx Inc., priority 2016, dated 2019).
Read-outs that look alike come from different tables or passages of the source.

How the values were obtained:
NR2A = NR2A (Homo sapiens, UniProt Q12879); experiment: Potentiation of [3H]MK-801 binding, wild-type NMDAR2A; design: species or system rat; conditions: for NMDAR2A BINDING PROFILE % 1 mM Glycine: relative to 1 mM glycine
NR2B = NR2B (Homo sapiens, UniProt Q13224); experiment: Potentiation of [3H]MK-801 binding, wild-type NMDAR2B; design: species or system rat; conditions: for NMDAR2B BINDING PROFILE % 1 mM Glycine: relative to 1 mM glycine; for NMDAR2B BINDING PROFILE Conclusion / EC50: wild-type NMDAR2B; for EC50: 0 = no activity, read-out: NMDAR2B BINDING PROFILE −logEC50 (converted)
Method: (§1) Assays were conducted as described by Moskal et al., “GLYX-13: a monoclonal antibody-derived peptide that acts as an N-methyl-D-aspartate receptor modulator,” Neuropharmacology, 49, 1077-87, 2005. The potentiation of [^3H]MK-801 binding (5 nM; 22.5 Ci/mmol) to well washed rat cortical membranes (200 μg) was measured under non-equilibrium conditions (15 min @ 25° C.) in the presence of increasing concentrations of Compound AA or Compound BB.
(§2) FIG. 2A depicts the potentiation of [^3H]MK-801 binding for wild-type NMDAR2 subtypes in the presence of Compound AA. FIG. 2B depicts the potentiation of [^3H]MK-801 binding for wild-type NMDAR2 subtypes in the presence of Compound BB. The following table depicts the results (P means potency and A means activity): […]

NR2C = NR2C (Homo sapiens, UniProt Q14957); experiment: Potentiation of [3H]MK-801 binding, wild-type NMDAR2C; design: species or system rat; conditions: for NMDAR2C BINDING PROFILE % 1 mM Glycine: relative to 1 mM glycine
Method: as §1, §2

NR2D = NR2D (Homo sapiens, UniProt O15399); experiment: Potentiation of [3H]MK-801 binding, wild-type NMDAR2D; design: species or system rat; conditions: for NMDAR2D BINDING PROFILE % 1 mM Glycine: relative to 1 mM glycine
Method: as §1, §2

[1] = Microsomal stability, human; type: in vitro ADME; conditions: human microsomes
Method: (§3) Microsomal stability for Compound AA and Compound BB was investigated. The following table indicates the percent of Compound AA and Compound BB remaining after 60 minutes.

[2] = Microsomal stability, rat; type: in vitro ADME; conditions: rat microsomes
Method: as §3

Plasma stability, human = type: in vitro ADME
Method: (§4) Plasma stability for Compound AA and Compound BB was investigated. The following table indicates the percent of Compound AA and Compound BB remaining after 60 minutes.

Plasma stability, rat = type: in vitro ADME
Method: as §4

[3] = Plasma protein binding assay, rat; type: in vitro ADME; conditions: read-out: Plasma Protein binding (% Bound) Plasma rat (converted)
Method: Bound drug concentration in the brain was also investigated, and plasma protein binding assays were conducted. The following table (% bound) indicates results for Compound AA and Compound BB.

[4] = Bioavailability and CSF/brain/plasma exposure after PO administration; type: in vivo, Sprague Dawley rats; conditions: rat, plasma; PO administration (10 mg/kg PO, 2 mg/kg IV), male Sprague Dawley rats; read-out: Bioavailablity (% F)
Method: The bioavailablity of Compound BB was investigated following PO administration. CSF, brain and plasma samples were analyzed following dosing with compound BB (10 mg/kg). The following table indicates the bioavailablity and CSF/plasma and brain/plasma ratios.
Sprague Dawley rats were dosed intravenously with 2 mg/kg of Compound AA. A second group of Sprague Dawley rats was dosed per os with 10 mg/kg of compound AA. Plasma samples were drawn over a 24 h period and analyzed for Compound AA. FIG. 3A presents the mean plasma concentration-time profile of Compound AA following the single intraveneous (2 mg/kg) and oral (10 mg/kg) dose administration in male Sprague Dawley rats over the 24 hour period.
In another experiment. Sprague Dawley rats were dosed intravenously with 2 mg/kg of Compound BB. A second group of Sprague Dawley rats was dosed per os with 10 mg/kg of compound BB. Plasma samples were drawn over a 24 h period and analyzed for Compound BB. FIG. 3B presents the mean plasma concentration-time profile of Compound BB following the single intraveneous (2 mg/kg) and oral (10 mg/kg) dose administration in male Sprague Dawley rats over the 24 hour period.
In another experiment, Sprague Dawley rats were dosed per os with 10 mg/kg of Compound BB. Plasma, brain, and CSF samples were analyzed at various time points over a 24 hour period.

Sprague Dawley rats = experiment: Porsolt forced swim test; type: in vivo, rat; conditions: 1 mg/kg PO
Method: A non-clinical in vivo pharmacology study (Porsolt assay) was performed to measure antidepressant-like effects. A negative control (0.5% sodium carboxymethyl cellulose in 0.9% sterile saline vehicle) and a positive control (Compound C) were used to compare against Compound BB. The study allowed for the construction of a dose-response curve of the effects of each compound on the Porsolt forced swim test as assessed by the rats' response (reduced floating time) during a 5-minute swimming test.
Male 2-3 month old Sprague Dawley rats were used (Harlan, Indianapolis, Ind.). Rats were housed in Lucite cages with aspen wood chip bedding, maintained on a 12:12 light:dark cycle (lights on at 5 AM), and given ad libitum access to Purina lab chow (USA) and tap water throughout the study.
The Porsolt forced swim test adapted for use in rats was performed as described by Burgdorf et al., (The long-lasting antidepressant effects of rapastinel (GLYX-13) are associated with a metaplasticity process in the medial prefrontal cortex and hippocampus. Neuroscience 308:202-211, 2015). Animals were placed in a 46 cm tall×20 cm in diameter clear glass tube filled to 30 cm with tap water (23±1° C.) for 15 min on the first day (habituation) and 5 min on the subsequent test day. Animals were tested 1 h post-dosing with the compound BB, positive control (Compound C, 10 μg/kg), or vehicle (0.5% sodium carboxymethyl cellulose (Na-CMC) in 0.9% sterile saline). Water was changed after every other animal. Animals were videotaped, and floating time as defined as the minimal amount of effort required to keep the animals head above water was scored offline by a blinded experimenter with high inter-rater reliability (Pearson's r >0.9).
The maximally efficacious dose was defined as the lowest dose that was statistically different from vehicle but statistically equivalent (per Fisher's PLSD) to the higher doses. […]
Compound AA was assessed in a second set of animals at a single dose at 1 h post-administration and in a third set of animals at 24 h post-administration (FIG. 9B). […]

[5] = wild-type NMDAR2D, read-out: NMDAR2D BINDING PROFILE −logEC50 (converted)
[6] = wild-type NMDAR2A, 0 = no activity, read-out: NMDAR2A BINDING PROFILE −logEC50 (converted)
[7] = wild-type NMDAR2C, 0 = no activity, read-out: NMDAR2C BINDING PROFILE −logEC50 (converted)
[8] = potentiation of [3H]MK-801 binding

NR2D, sequence (O15399 28-1336, species assumed, other chains not shown): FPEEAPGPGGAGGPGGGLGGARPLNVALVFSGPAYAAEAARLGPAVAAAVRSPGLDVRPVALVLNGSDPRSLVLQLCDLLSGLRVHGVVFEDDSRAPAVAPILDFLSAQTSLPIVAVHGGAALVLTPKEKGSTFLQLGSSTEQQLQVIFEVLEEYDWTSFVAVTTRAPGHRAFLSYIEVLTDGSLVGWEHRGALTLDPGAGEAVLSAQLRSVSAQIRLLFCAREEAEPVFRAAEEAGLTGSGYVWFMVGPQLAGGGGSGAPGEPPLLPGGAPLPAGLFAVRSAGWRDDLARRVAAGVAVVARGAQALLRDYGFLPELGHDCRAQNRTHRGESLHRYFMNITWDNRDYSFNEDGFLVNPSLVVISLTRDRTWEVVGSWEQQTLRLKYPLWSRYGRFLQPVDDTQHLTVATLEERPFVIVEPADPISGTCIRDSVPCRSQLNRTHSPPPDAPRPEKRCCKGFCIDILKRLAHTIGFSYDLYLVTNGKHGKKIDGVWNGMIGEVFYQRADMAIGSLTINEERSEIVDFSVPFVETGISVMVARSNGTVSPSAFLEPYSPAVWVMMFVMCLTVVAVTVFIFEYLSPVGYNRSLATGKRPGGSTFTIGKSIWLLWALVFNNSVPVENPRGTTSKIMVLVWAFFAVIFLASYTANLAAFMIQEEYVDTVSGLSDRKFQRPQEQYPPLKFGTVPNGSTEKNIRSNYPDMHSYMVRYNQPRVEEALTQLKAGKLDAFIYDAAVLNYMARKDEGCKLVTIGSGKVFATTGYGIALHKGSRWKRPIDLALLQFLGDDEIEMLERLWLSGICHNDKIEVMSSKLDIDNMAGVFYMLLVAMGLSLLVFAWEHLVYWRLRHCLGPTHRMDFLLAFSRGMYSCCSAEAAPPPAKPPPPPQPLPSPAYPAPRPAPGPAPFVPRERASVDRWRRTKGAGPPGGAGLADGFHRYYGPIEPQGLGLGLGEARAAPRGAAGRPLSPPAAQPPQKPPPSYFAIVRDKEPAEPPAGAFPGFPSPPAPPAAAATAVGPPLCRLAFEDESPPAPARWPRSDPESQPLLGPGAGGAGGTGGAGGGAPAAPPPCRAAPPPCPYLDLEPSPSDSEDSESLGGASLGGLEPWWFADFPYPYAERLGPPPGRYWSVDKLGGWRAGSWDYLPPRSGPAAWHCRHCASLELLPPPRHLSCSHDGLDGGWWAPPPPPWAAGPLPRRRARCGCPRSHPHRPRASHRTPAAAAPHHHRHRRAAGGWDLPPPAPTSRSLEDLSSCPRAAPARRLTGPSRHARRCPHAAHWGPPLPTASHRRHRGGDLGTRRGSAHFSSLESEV
NR2C, sequence (Q14957 20-1233, species assumed, other chains not shown): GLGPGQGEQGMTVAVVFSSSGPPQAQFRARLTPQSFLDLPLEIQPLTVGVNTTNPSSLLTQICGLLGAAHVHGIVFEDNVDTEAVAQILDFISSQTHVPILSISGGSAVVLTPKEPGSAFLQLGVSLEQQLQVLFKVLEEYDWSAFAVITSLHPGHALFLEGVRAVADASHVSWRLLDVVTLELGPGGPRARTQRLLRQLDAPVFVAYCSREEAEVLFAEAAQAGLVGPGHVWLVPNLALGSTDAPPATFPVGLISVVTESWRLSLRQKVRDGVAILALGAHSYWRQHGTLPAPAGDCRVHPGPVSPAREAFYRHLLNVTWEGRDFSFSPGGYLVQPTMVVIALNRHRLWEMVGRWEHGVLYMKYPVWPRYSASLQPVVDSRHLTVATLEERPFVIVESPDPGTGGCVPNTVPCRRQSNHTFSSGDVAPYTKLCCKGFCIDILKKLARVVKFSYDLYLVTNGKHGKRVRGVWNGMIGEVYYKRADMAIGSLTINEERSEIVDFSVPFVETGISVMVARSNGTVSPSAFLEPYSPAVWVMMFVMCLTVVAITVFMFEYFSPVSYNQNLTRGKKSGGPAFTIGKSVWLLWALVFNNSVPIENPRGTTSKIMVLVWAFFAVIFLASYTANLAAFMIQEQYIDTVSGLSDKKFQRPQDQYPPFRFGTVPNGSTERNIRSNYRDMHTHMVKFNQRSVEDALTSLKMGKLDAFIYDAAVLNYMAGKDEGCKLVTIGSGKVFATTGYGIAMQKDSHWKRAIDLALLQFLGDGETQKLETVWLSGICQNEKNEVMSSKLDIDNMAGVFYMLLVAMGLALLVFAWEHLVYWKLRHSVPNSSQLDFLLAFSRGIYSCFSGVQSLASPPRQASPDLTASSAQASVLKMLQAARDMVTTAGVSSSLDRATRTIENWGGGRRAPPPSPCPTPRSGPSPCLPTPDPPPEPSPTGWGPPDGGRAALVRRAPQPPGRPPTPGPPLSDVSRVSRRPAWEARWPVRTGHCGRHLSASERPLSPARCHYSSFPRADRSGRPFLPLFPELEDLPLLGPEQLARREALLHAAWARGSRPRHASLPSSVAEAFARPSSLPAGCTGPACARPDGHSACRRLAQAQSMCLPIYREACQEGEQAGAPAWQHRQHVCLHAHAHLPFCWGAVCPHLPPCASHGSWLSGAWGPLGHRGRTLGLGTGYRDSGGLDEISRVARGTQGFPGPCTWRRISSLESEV
NR2A, sequence (Q12879 23-1464, species assumed, other chains not shown): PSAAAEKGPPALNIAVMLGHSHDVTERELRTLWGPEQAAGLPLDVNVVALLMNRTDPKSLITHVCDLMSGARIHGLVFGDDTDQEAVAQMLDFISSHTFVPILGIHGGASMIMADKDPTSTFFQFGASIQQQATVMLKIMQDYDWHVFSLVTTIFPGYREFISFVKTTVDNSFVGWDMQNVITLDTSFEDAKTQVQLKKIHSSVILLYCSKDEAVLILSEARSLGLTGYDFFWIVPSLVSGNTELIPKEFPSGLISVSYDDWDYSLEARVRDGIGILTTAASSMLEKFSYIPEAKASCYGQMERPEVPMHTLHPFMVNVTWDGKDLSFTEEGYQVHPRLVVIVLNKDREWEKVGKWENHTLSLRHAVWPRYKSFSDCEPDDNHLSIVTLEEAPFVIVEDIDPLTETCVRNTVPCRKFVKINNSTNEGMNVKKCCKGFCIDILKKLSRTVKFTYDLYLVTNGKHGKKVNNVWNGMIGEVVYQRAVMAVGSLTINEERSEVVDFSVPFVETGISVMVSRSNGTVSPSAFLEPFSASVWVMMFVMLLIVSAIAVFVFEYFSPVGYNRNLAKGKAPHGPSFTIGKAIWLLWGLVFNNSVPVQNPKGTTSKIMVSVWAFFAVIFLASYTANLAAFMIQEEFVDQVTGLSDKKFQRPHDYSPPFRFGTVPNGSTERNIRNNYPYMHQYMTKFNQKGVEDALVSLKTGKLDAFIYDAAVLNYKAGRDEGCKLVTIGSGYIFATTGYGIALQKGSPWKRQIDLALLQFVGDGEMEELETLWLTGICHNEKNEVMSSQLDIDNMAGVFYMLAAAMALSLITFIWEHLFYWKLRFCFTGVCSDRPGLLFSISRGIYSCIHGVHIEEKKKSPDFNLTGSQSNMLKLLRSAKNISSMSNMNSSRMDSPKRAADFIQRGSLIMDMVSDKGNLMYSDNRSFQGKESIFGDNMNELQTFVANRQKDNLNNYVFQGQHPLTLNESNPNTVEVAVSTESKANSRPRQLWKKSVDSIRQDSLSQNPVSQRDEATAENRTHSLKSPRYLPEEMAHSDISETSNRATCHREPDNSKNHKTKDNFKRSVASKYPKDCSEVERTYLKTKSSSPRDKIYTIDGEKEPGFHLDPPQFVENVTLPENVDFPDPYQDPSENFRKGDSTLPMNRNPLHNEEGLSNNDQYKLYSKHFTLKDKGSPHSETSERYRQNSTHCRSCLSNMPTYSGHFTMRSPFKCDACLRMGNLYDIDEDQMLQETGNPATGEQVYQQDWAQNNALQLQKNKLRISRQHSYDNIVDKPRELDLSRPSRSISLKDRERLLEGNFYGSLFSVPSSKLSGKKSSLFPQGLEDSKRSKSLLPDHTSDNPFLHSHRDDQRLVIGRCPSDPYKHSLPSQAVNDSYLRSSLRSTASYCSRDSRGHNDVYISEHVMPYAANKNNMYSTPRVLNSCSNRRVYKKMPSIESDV

Structure (SMILES)	NMDAR2A BINDING PROFILE % 1 mM Glycine (NR2A) [%]	NMDAR2A BINDING PROFILE Conclusion (NR2A; wild-type NMDAR2A)	NMDAR2B BINDING PROFILE % 1 mM Glycine (NR2B) [%]	NMDAR2B BINDING PROFILE Conclusion (NR2B)	EC50 (NR2B) [pM]	NMDAR2C BINDING PROFILE % 1 mM Glycine (NR2C) [%]	NMDAR2C BINDING PROFILE Conclusion (NR2C; wild-type NMDAR2C)	NMDAR2D BINDING PROFILE % 1 mM Glycine (NR2D) [%]	NMDAR2D BINDING PROFILE Conclusion (NR2D; wild-type NMDAR2D)	EC50 (NR2D; [5]) [M]	EC50 (NR2A; [6]) [M]	EC50 (NR2C; [7]) [M]	other results
C[C@@H](O)[C@@H](C(N)=O)N1C[C@@]2(CCCN2C(=O)OC(C)(C)C)C1=O [Compound X, tert-butyl (S)-2-((2S,3R)-1-amino-3-hydroxy-1-oxobutan-2-yl)-1-oxo-2,5-diazaspiro[3,4]octane-5-carboxylate]	41.04	WT2A agonist	59.55	WT2B agonist	147	59.73	WT2C agonist	93.58	WT2D agonist	1.32e-12			
CC(C)C(=O)N1CCC[C@@]12CN([C@H](C(N)=O)[C@@H](C)O)C2=O [Compound Z, (2S,3R)-3-hydroxy-2-((S)-5-isobutyryl-1-oxo-2,5-diazaspiro[3,4]octan-2-yl)butanamide]	42.5	WT2A agonist	70.49	WT2B agonist		47.76	WT2C agonist	65.32	WT2D agonist	6.03e-12	8.71e-11	3.16e-12	
C[C@@H](O)[C@@H](C(N)=O)N1C[C@]2(CCCN2S(C)(=O)=O)C1=O [Compound AA, (2S,3R)-3-hydroxy-2-((R)-5-(methylsulfonyl)-1-oxo-2,5-diazaspiro[3,4]octan-2-yl)butanamide]	38.8	WT2A agonist	0	WT2B no		67	WT2C agonist	52	WT2D agonist	1.58e-11			Microsomal Stability (% remaining at 60 min) Human [1]: 100%; Microsomal Stability (% remaining at 60 min) Rat [2]: 100%; Plasma Stability (% remaining at 60 min) Human (Plasma stability, human): 91%; Plasma Stability (% remaining at 60 min) Rat (Plasma stability, rat): 59%; fraction unbound [3]: 0.82; bioavailability [4]: 29%; NR2A A (%) (activity) (NR2A; [8]): 38.8%; EC50 (NR2A; potentiation of [3H]MK-801 binding, 0 = no activity, read-out: NR2A P (M) (potency)): 1e-10 M; NMDAR2A BINDING PROFILE −logEC50 (NR2A; wild-type NMDAR2A, 0 = no activity): 10; NR2B A (%) (activity) (NR2B; [8]): 0%; NR2C A (%) (activity) (NR2C; [8]): 67.0%; EC50 (NR2C; potentiation of [3H]MK-801 binding, 0 = no activity, read-out: NR2C P (M) (potency)): 1e-10 M; NMDAR2C BINDING PROFILE −logEC50 (NR2C; wild-type NMDAR2C, 0 = no activity): 10; NR2D A (%) (activity) (NR2D; [8]): 58.7%; EC50 (NR2D; potentiation of [3H]MK-801 binding, 0 = no activity, read-out: NR2D P (M) (potency) (converted)): 2e-11 M; floating time in the Porsolt test (Sprague Dawley rats; 1 h post-dosing): significant (p<0.05) antidepressant-like effect; floating time in the Porsolt test (Sprague Dawley rats; 24 h post-dosing): significant (p<0.05) antidepressant-like effect
CC(C)C(=O)N1CCC[C@]12CN([C@H](C(N)=O)[C@@H](C)O)C2=O [Compound Y, (2S,3R)-3-hydroxy-2-((R)-5-isobutyryl-1-oxo-2,5-diazaspiro[3,4]octan-2-yl)butanamide]	61.76	WT2A agonist	70.74	WT2B agonist		64.24	WT2C agonist	54.85	WT2D agonist	1e-10	8.91e-12	3.63e-12	
C[C@@H](O)[C@@H](C(N)=O)N1C[C@]2(CCCN2C(=O)OC(C)(C)C)C1=O [Compound W, tert-butyl (R)-2-((2S,3R)-1-amino-3-hydroxy-1-oxobutan-2-yl)-1-oxo-2,5-diazaspiro[3,4]octane-5-carboxylate]	18.33	WT2A agonist	53.09	WT2B agonist	1060	67.5	WT2C agonist	66.72	WT2D agonist	7.08e-12	4.47e-12	1.45e-10	
